Structures are written as SMILES.

For one assay, the target named is BTK (C481S) (Homo sapiens (Human), UniProt Q06187, C481S). The experiment in a line: BTK C481S enzyme experiment (ADP-Glo kinase assay). The settings on record: 10 nM BTK C481S, ATP 125 μM, Poly(Glu4, Tyr1), 90 minutes at 20° C. The class given is biochemical. The procedure, abridged:
(§1)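 Wild-type or C481S BTK, added as 2× solution at 10 nM, preincubated 10 min with 3-fold compound dilutions in 50 mM HEPES pH 7.5, 10 mM MgCl2, 2 mM DTT, 0.0015% Brij-35. ADP-Glo luminescence norm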

Another assay addresses BTK (Homo sapiens (Human), UniProt Q06187). The experiment in a line: BTK enzyme experiment (ADP-Glo kinase assay). The class given is biochemical. The following applies: 10 nM BTK, ATP 125 μM, Poly(Glu4, Tyr1), 90 minutes at 20° C.; read-out: BTK(WT) IC50. An outline of the steps:
as §1

A further assay deals with TMD-8 cells. Put plainly: TMD-8 proliferation inhibition experiment. The settings on record: human diffuse large B lymphoma cells, three days incubation. The class given is cell-based. An outline of the steps:
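Log-phase cells seeded in 384-well plates (600 TMD-8 in RPMI 1640, 2000 OCI-LY10 in IMDM, both 10% FBS), then exposed one day later to 3-fold compound dilutions at 0.25% DMSO for three days. ADP-Glo luminescence read; inhibition versus DMSO and medium-only blank, IC50 by four-parameter fit.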

BTK, sequence (Q06187 whole entry): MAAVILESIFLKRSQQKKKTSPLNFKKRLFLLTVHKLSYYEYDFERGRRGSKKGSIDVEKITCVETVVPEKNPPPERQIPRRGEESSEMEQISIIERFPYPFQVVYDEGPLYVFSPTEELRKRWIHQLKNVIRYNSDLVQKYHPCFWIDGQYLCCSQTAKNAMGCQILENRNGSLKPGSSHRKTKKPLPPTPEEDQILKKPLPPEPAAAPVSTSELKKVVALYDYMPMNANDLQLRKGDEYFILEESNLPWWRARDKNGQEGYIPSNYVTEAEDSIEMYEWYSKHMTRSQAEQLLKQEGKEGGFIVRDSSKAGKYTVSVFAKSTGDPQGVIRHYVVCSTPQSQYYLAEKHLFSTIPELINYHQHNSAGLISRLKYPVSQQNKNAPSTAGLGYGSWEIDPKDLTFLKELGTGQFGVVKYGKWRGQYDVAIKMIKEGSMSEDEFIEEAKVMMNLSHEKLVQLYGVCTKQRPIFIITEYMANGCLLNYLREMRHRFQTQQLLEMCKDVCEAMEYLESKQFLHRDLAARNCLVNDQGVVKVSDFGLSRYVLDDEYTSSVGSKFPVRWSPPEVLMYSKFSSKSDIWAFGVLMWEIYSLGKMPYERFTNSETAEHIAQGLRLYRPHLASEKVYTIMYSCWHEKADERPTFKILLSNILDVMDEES
BTK (C481S), sequence (Q06187 whole entry C481S): as the sequence (Q06187 whole entry) above, with C481S counted along it

As a reminder, the IC50 is the concentration that inhibits the measured activity by half. In the case of `COC[C@]1(C)Nc2c(cnc3[nH]cc(C(=O)c4ccc(Oc5cc(Cl)cc(C)n5)cc4Cl)c23)NC1=O` [Z134, (S)-9-(2-chloro-4-((4-chloro-6-methylpyridin-2-yl)oxy)benzoyl)-2-(methoxymethyl)-2-methyl-1,2,4,7-tetrahydro-3H-pyrrolo[3′,2′:5,6]pyrido[3,4-b]pyrazin-3-one], the IC50 on BTK (C481S) came to 11.4 nM; at BTK, 14.9 nM; in the assay on TMD-8 cells (Homo sapiens, TMD8, 72 h), 256 nM.
The corresponding values for `C[C@@]1(COC(F)F)Nc2c(cnc3[nH]cc(C(=O)c4ccc(Oc5ccccc5)cc4Cl)c23)NC1=O` [Z139, (S)-9-(2-chloro-4-phenoxybenzoyl)-2-((difluoromethoxy)methyl)-2-methyl-1,2,4,7-tetrahydro-3H-pyrrolo[3′,2′:5,6]pyrido[3,4-b]pyrazin-3-one] are 22.1 nM, 37.1 nM and 106 nM.
The corresponding values for `COC[C@]1(C)Nc2c(cnc3[nH]cc(C(=O)c4ccc(Oc5ncccc5C)cc4Cl)c23)NC1=O` [Z140, (S)-9-(2-chloro-4-((3-methylpyridin-2-yl)oxy)benzoyl)-2-(methoxymethyl)-2-methyl-1,2,4,7-tetrahydro-3H-pyrrolo[3′,2′:5,6]pyrido[3,4-b]pyrazin-3-one] are 18.2 nM, 26.5 nM and 158 nM.
On to `COC[C@]1(C)Nc2c(cnc3[nH]cc(C(=O)c4ccc(Oc5ccccc5)cc4Cl)c23)N(CCO)C1=O` [Z143], for which the IC50 worked out at 23.2 nM at BTK (C481S), 35.6 nM at BTK and 291 nM in the assay with TMD-8 cells.
Regarding `COC[C@]1(C)Nc2c(cnc3[nH]cc(C(=O)c4ccc(Oc5ncccc5F)cc4Cl)c23)NC1=O` [Z144, (S)-9-(2-chloro-4-((3-fluoropyridin-2-yl)oxy)benzoyl)-2-(methoxymethyl)-2-methyl-1,2,4,7-tetrahydro-3H-pyrrolo[3′,2′:5,6]pyrido[3,4-b]pyrazin-3-one], the IC50 against BTK (C481S) was 16.8 nM; at BTK, 11.7 nM; in the assay on TMD-8 cells (Homo sapiens, TMD8, 72 h) it was 227 nM.
As to `[2H]C([2H])([2H])OC[C@]1(C)Nc2c(cnc3[nH]cc(C(=O)c4ccc(Oc5ncccc5F)cc4Cl)c23)NC1=O` [Z145, (S)-9-(2-chloro-4-((3-fluoropyridin-2-yl)oxy)benzoyl)-2-((methoxy-d3)methyl)-2-methyl-1,2,4,7-tetrahydro-3H-pyrrolo[3′,2′:5,6]pyrido[3,4-b]pyrazin-3-one], the IC50 turned out to be 13.1 nM at BTK (C481S); 9.3 nM on BTK; 166 nM in the assay on TMD-8 cells (Homo sapiens, TMD8, 72 h).
The corresponding values for `[2H]C([2H])([2H])OC[C@]1(C)Nc2c(cnc3[nH]cc(C(=O)c4ccc(Oc5nccc(C)c5F)cc4Cl)c23)NC1=O` [Z146, (S)-9-(2-chloro-4-((3-fluoro-4-methylpyridin-2-yl)oxy)benzoyl)-2-((methoxy-d3)methyl)-2-methyl-1,2,4,7-tetrahydro-3H-pyrrolo[3′,2′:5,6]pyrido[3,4-b]pyrazin-3-one] are 16.3 nM, 10 nM and 195 nM.
For `COC[C@]1(C)Nc2c(cnc3[nH]cc(C(=O)c4ccc(Oc5ncccc5Cl)cc4Cl)c23)NC1=O` [Z147, (S)-9-(2-chloro-4-((3-chloropyridin-2-yl)oxy)benzoyl)-2-(methoxymethyl)-2-methyl-1,2,4,7-tetrahydro-3H-pyrrolo[3′,2′:5,6]pyrido[3,4-b]pyrazin-3-one] the same measures were 19.8 nM, 11.1 nM and 279 nM.
For `COC[C@]1(C)Nc2c(cnc3[nH]cc(C(=O)c4ccc(Oc5ccccc5F)cc4F)c23)NC1=O` [Z156, (S)-9-(2-fluoro-4-(2-fluorophenoxy)benzoyl)-2-(methoxymethyl)-2-methyl-1,2,4,7-tetrahydro-3H-pyrrolo[3′,2′:5,6]pyrido[3,4-b]pyrazin-3-one] the same measures were 10.5 nM, 20 nM and 117 nM.
